# Legend:
# [1] = Solubility of esylate salt: final concentration of the solution after filtration; format: physicochemical
# Procedure: A solution was prepared by dissolving excess of Compound A as esylate salt in 3 mL water followed by gently stirring over night. A final concentration of the solution after filtration was monitored to 14 mg/ml at a pH of 2.7.
# A solution was prepared by dissolving 112 mg of Compound A as esylate salt in 3 mL sodium phosphate buffer followed by gently stirring over night. A final concentration of the solution after filtration was monitored to 33 mg/ml at a pH of 2.7.
# A solution was prepared by dissolving 20 mg of Compound A as esylate salt in 3 mL sodium phosphate buffer followed by gently stirring over night. A final concentration of the solution after filtration was monitored to 1.6 mg/ml at a pH of 6.5.
# [2] = Solubility in vehicle compared to water alone; format: physicochemical
# [3] = Storage stability of liquid formulations; format: physicochemical
# Procedure: The pH of this solution was set to 3.8 by addition of HCl. The solubility of Compound A is at least 1000 times higher in this vehicle compared to water alone. Formulations of Compound A in this vehicle are stable for at least 3 months at <−15° C.
# [4] = Nanoparticle preparation: particle size and its stability; format: physicochemical; conditions: for nanoparticle size: about 100 mM ethanol stock with 25% (w/w) Miglyol, diluted 1/10 in 0.2% PVP and 0.25 mM SDS in water, ultrasonication; for particle sizes after 6 hours at room temperature: nanoparticles after 1/10 dilution in 0.2% PVP and 0.25 mM SDS in water
# Procedure: In order to prepare nanoparticles a stock solution of Compound A of about 100 mM in ethanol was used. Included was also 25% (w/w) Miglyol, calculated on the amount of the substance. The solutions were diluted 1/10 with the stabilizer solution, consisting of 0.2% (w/w) PVP and 0.25 mM SDS in water. The mixing, which is considered as a critical parameter during the nanoparticle preparation, was rapid and instant. The drug solution was rapidly injected into the stabilizer solution during ultrasonication. After the 1/10 dilution in the aqeous solution, nanoparticles of about 150 nm were achieved. After 6 hours at room temperature, the particle sizes were unchanged.
# To prepare nanoparticles a stock solution of Compound B of about 100 mM in ethanol was used. Included was also 25% (w/w) Miglyol, calculated on the amount of the substance. The solutions were diluted 1/10 with a stabilizer solution consisting of 0.2% (w/w) PVP and 0.25 mM SDS in water. The critical mixing stage was rapid and instant:—The drug solution was rapidly injected into the stabilizer solution during ultrasonication. After 1/10 dilution in the aqeous solution, nanoparticles of about 110 nm were obtained. After 6 hours at room temperature, the particle sizes were unchanged.
# pH of the formulation = format: physicochemical
# Procedure: A formulation was prepared by dissolving Compound A in acidified PEG 400/ethanol/water 20/10/70 (w/w) % that was followed by gently stirring. The pH of this solution was 3.6. The solubility of Compound A is at least 250 times higher in this vehicle compared to water alone.
# A formulation was prepared by dissolving Compound E in 9 mg/ml NaCl by gently stirring. The pH obtained in this formulation is 8-9.
# A formulation was prepared by dissolving Compound F in 9 mg/ml NaCl by gently stirring. The pH obtained in this formulation is 3-4. Formulations of F in this vehicle are stable for at least 2 weeks at room temperature and below.
# [5] = Plasma concentration 1 hour after oral or subcutaneous administration of solution to rats
# Procedure: A formulation was prepared by dissolving Compound C in saline/ethanol/solutol 90/5/5 (w/w) % followed by gently stirring.
smiles,measurement,setting,value
CCS(=O)(=O)O.CO/N=C(\N)c1ccc(CNC(=O)C2CCN2C(=O)C(O)c2cc(Cl)cc(OC(F)F)c2)cc1 (centres unmarked) [Compound A as esylate salt],solubility thermodynamic,"[1]; pH 2.7, aqueous buffer, thermodynamic from solid, 112 mg in 3 mL sodium phosphate buffer pH 3.1 I = 0.1, stirred over night, at a pH of 2.7",33 mg/mL
same,solubility thermodynamic,"[1]; pH 2.7, thermodynamic from solid, excess salt in 3 mL water, stirred over night, at a pH of 2.7",14 mg/mL
same,solubility thermodynamic,"[1]; pH 6.5, aqueous buffer, thermodynamic from solid, 20 mg in 3 mL sodium phosphate buffer pH 6.9 I = 0.1, stirred over night, at a pH of 6.5",1.6 mg/mL
"CO/N=C(\N)c1ccc(CNC(=O)[C@@H]2CCN2C(=O)[C@H](O)c2cc(Cl)cc(OC(F)F)c2)cc1 [Compound A, Ph(3-Cl)(5-OCHF2)—(R)CH(OH)C(O)—(S)Aze-Pab(OMe)]",solubility in this vehicle compared to water alone,[2]; Example 4: PEG 400/ethanol/water 50/5/45 (w/w) %,at least 1000 times
same,solubility in this vehicle compared to water alone,[2]; Example 5: PEG 400/ethanol/water 20/10/70 (w/w) %,at least 100 times
same,solubility in this vehicle compared to water alone,"[2]; Example 6: acidified PEG 400/ethanol/water 20/10/70, water with 50 μmol/mL tartaric acid, pH 3.6",at least 250 times
same,solubility in this vehicle compared to water alone,[2]; Example 7: PEG 400/ethanol/water 30/5/65 (w/w) %,at least 200 times
same,solubility in this vehicle compared to water alone,"[2]; Example 8: acidified PEG 400/ethanol/water 30/5/65, tartaric acid, HCl to pH 3.6",at least 400 times
same,solubility in this vehicle compared to water alone,[2]; Example 9: PEG 400/ethanol/water 40/5/55 (w/w) %,at least 600 times
same,solubility in this vehicle compared to water alone,"[2]; Example 10: acidified PEG 400/ethanol/water 40/5/55, tartaric acid, HCl to pH 3.8",at least 1000 times
same,solubility in this vehicle compared to water alone,"[2]; Example 11: Hydroxypropyl-β-cyclodextrin/water 40/60 (w/w) %, pH set to 4.7 by HCl",at least 700 times
same,solubility in this vehicle compared to water alone,[2]; Example 12: Hydroxypropyl-β-cyclodextrin/water 28/72 (w/w) %,at least 400 times
same,solubility in this vehicle compared to water alone,[2]; Example 13: PEG 400/ethanol/solutol/water 50/5/5/40 (w/w) %,at least 80 times
same,solubility in this vehicle compared to water alone,[2]; Example 14: PEG 400/water 40/60 (w/w) %,at least 200 times
same,solubility in this vehicle compared to water alone,"[2]; Example 15: PEG 400/water 35/65 (w/w) %, water with 50 μmol/mL tartaric acid",at least 250 times
same,solubility in this vehicle compared to water alone,[2]; Example 16: PEG 400/water 50/50 (w/w) %,at least 300 times
same,solubility in this vehicle compared to water alone,[2]; Example 17: PEG 400/water 67/33 (w/w) %,at least 400 times
same,solubility in this vehicle compared to water alone,[2]; Example 18: PEG 400/ethanol/water 45/1/54 (w/w) %,at least 450 times
same,solubility in this vehicle compared to water alone,"[2]; Example 19: acidified PEG 400/ethanol/water 45/1/54, tartaric acid, HCl to pH 4.2",at least 800 times
same,solubility in this vehicle compared to water alone,[2]; Example 20: PEG 400/ethanol/water 45/2/53 (w/w) %,at least 500 times
same,solubility in this vehicle compared to water alone,"[2]; Example 21: acidified PEG 400/ethanol/water 45/2/53, tartaric acid, HCl to pH 4.3",at least 800 times
same,solubility in this vehicle compared to water alone,[2]; Example 22: DMA/water 50/50 (w/w) %,at least 230 times
same,solubility in this vehicle compared to water alone,[2]; Example 23: DMA/water 25/75 (w/w) %,at least 150 times
same,solubility in this vehicle compared to water alone,"[2]; Example 24: water with double equimolar HCl, pH adjusted to 3.6",at least 20 times
same,solubility in this vehicle compared to water alone,"[2]; Example 25: water, HCl to pH 1, then NaOH to pH 3.0",at least 40 times
same,solubility in this vehicle compared to water alone,[2]; Example 26: DMA/miglyol (miglyol 0.25 g/g Compound A),at least 4000 times
same,solubility in this vehicle compared to water alone,[2]; Example 27: Ethanol/Miglyol (miglyol 0.25 g/g Compound A),at least 4000 times
same,solubility in this vehicle compared to water alone,[2]; Example 57: PEG 400/ethanol/water 25/10/65 (w/w) %,at least 100 times
same,solubility in this vehicle compared to water alone,[2]; Example 58: PEG 400/ethanol/water 50/10/40 (w/w) %,at least 2000 times
same,solubility in this vehicle compared to water alone,[2]; Example 59: PEG 400/ethanol/water 40/10/50 (w/w) %,at least 1500 times
same,solubility in this vehicle compared to water alone,"[2]; Example 60: ethanol, citric acid and water, pH set to 3.2",at least 100 times
same,time the formulation is stable,"[3]; Example 10: acidified PEG 400/ethanol/water 40/5/55, pH 3.8, at <−15° C.",at least 3 months
same,time the substance is stable in this formulation,[3]; Example 28: 130 μmol/mL in ethanol,more than 1 week
same,time the formulation is stable,"[3]; Example 57: PEG 400/ethanol/water 25/10/65, in a freezer",at least 2 months
same,time the formulation is stable,"[3]; Example 60: ethanol, citric acid and water, pH 3.2, in a freezer",at least 1 month
same,time the formulation is stable,"[3]; Example 61: citric acid in physiological saline, pH 3.6, in a freezer",at least 3 months
same,time the formulation is stable,"[3]; Example 62: PEG 400/ethanol/water 40/5/55 containing citric acid, pH 3.6, in a freezer",at least 1 month
same,time the formulation is stable,"[3]; Example 67: citric acid in physiological saline, pH 3.6, in a freezer",at least 3 months
same,nanoparticle size,[4],about 150 nm
same,particle sizes after 6 hours at room temperature,[4],unchanged
same,pH of this solution,"pH of the formulation; Example 6: 51 μmol/mL in PEG 400/ethanol/water 20/10/70, water with 50 μmol/mL tartaric acid",3.6
"CO/N=C(\N)c1cc(F)c(CNC(=O)[C@@H]2CCN2C(=O)[C@H](O)c2cc(Cl)cc(OC(F)F)c2)c(F)c1 [Compound B, Ph(3-Cl)(5-OCHF2)—(R)CH(OH)C(O)—(S)Aze-Pab(2,6-diF)(OMe)]",time the formulation is stable,"[3]; Example 69: 0.5 mg/mL in PEG 400/ethanol/water 50/5/45, at <−15° C.",at least 1 month
same,nanoparticle size,[4],about 110 nm
same,particle sizes after 6 hours at room temperature,[4],unchanged
"CO/N=C(\N)c1ccc(CNC(=O)[C@@H]2CCN2C(=O)[C@H](O)c2cc(Cl)cc(OCCF)c2)cc1 [Compound C, Ph(3-Cl)(5-OCH2CH2F)—(R)CH(OH)C(O)—(S)Aze-Pab(OMe)]",time the formulation is stable,"[3]; Example 73: 0.5 mg/mL in PEG 400/ethanol/water 50/5/45, at room temperature and below",at least 1 month
same,time the formulation is stable,"[3]; Example 74: Hydroxypropyl-β-cyclodextrin/water 20/80, at <8° C.",at least 2 weeks
"N=C(N)c1ccc(CNC(=O)[C@@H]2CCN2C(=O)[C@H](O)c2cc(Cl)cc(OC(F)F)c2)cc1 [Compound D, Ph(3-Cl)(5-OCHF2)—(R)CH(OH)C(O)—(S)Aze-Pab]",time the formulation is stable,"[3]; Example 64: acidified PEG 400/ethanol/water 40/5/55, pH 3.6, at <−15° C.",at least 2 months
same,plasma concentration after 1 hour,"[5]; oral, dosed: Compound A 4 μmol/mL in saline/ethanol/solutol 90/5/5",560 nM
same,plasma concentration after 1 hour,"[5]; subcutaneous, dosed: Compound A 4 μmol/mL in saline/ethanol/solutol 90/5/5",240 nM
same,plasma concentration after 1 hour,"[5]; subcutaneous, dosed: Compound D trifluoroacetate salt 4 μmol/mL in saline/ethanol",550 nM
"N=C(N)c1cc(F)c(CNC(=O)[C@@H]2CCN2C(=O)[C@H](O)c2cc(Cl)cc(OC(F)F)c2)c(F)c1 [Compound E, Ph(3-Cl)(5-OCHF2)—(R)CH(OH)C(O)—(S)Aze-Pab(2,6-diF)]",pH obtained in this formulation,pH of the formulation; Example 72: dissolved in 9 mg/ml NaCl,8-9
same,plasma concentration after 1 hour,"[5]; oral, dosed: Compound B 4 μmol/mL in saline/ethanol/solutol 90/5/5",650 nM
same,plasma concentration after 1 hour,"[5]; subcutaneous, dosed: Compound B 4 μmol/mL in saline/ethanol/solutol 90/5/5",300 nM
same,plasma concentration after 1 hour,"[5]; subcutaneous, dosed: Compound E acetate salt 4 μmol/mL in saline/ethanol",750 nM
"N=C(N)c1ccc(CNC(=O)[C@@H]2CCN2C(=O)[C@H](O)c2cc(Cl)cc(OCCF)c2)cc1 [Compound F, Ph(3-Cl)(5-OCH2CH2F)—(R)CH(OH)C(O)—(S)Aze-Pab]",time the formulation is stable,"[3]; Example 75: 9 mg/ml NaCl, at room temperature and below",at least 2 weeks
same,pH obtained in this formulation,pH of the formulation; Example 75: dissolved in 9 mg/ml NaCl,3-4
same,plasma concentration after 1 hour,"[5]; oral, dosed: Compound C 4 μmol/mL in saline/ethanol/solutol 90/5/5",500 nM
same,plasma concentration after 1 hour,"[5]; subcutaneous, dosed: Compound C 4 μmol/mL in saline/ethanol/solutol 90/5/5",500 nM
same,plasma concentration after 1 hour,"[5]; subcutaneous, dosed: Compound F trifluoroacetate salt 4 μmol/mL in saline/ethanol",920 nM
